Laboratory results reported in patent US20090142846A1, “METHODS FOR MEASURING BIOCHEMICAL REACTIONS” (EKSIGENT TECHNOLOGIES, LLC, priority 2005, published 2009).
Like-named read-outs stand apart in the source and are kept apart here.

Columns and labels:
P. falciparum LDH = P. falciparum LDH (Plasmodium falciparum, UniProt Q27743); test: Fluorescence-coupled LDH enzyme assay on microfluidics system with continuously variable concentration gradient; assay type: biochemical
Excerpt: A fluorescence-coupled enzyme assay was developed using a microfluidics system described herein for creating a continuously variable concentration gradient to monitor the reduction of NAD^+ by the enzyme LDH to give a fluorescent end product. This system was then adapted to measure potency and determine mechanism of inhibition by various inhibitors of LDH.
One of the products of the reaction in the assay, NADH, is coupled to Thermus thermophilus NADH oxidase to generate H2O2, which in turn is coupled to horseraddish peroxidase which reacts with […] and amplex red (Molecular Probes, Inc., Eugene, Oreg., U.S.A.) to give the fluorescent product resorufin. […]
The novel data analysis techniques described herein for determining the mechanism of inhibition of an inhibitor (or mechanism of activation of an activator) are applied to the data produced from the microfluidics system. The titration of the enzyme with a continuous linear variation of inhibitor and substrate from zero to a pre-determined finite concentration yields a characteristic rate profile that is defined by the specific type of interaction of the inhibitor and enzyme with respect to the substrate. […]
The titration of LDH with a linear gradient of NAD^+ was performed on the microfluidics system described herein with the change in relative fluorescence intensity monitored under initial rate conditions. […]

LDH = details: cited from earlier work
[1] = target: rabbit muscle lactate dehydrogenase (LDH) (Oryctolagus cuniculus, UniProt P13491); test: Continuous variation method on a microtiter plate (step concentration gradients); assay type: biochemical; details: limited data
Excerpt: Determination of the mechanism of inhibition by the inhibitor oxalate with respect to the substrate NAD^+ against the enzyme rabbit muscle lactate dehydrogenase (LDH) using a microtiter plate to generate individual step concentration gradients was attempted. FIG. 49 is a graph showing the results of the experiment. An attempt to determine the mechanism of inhibition by the inhibitor oxalate with respect to the substrate lactate against the enzyme rabbit muscle LDH using a microtiter plate to generate individual step concentration gradients was attempted. FIG. 50 is a graph showing the results of this experiment.

P. falciparum LDH, sequence (Q27743 whole entry): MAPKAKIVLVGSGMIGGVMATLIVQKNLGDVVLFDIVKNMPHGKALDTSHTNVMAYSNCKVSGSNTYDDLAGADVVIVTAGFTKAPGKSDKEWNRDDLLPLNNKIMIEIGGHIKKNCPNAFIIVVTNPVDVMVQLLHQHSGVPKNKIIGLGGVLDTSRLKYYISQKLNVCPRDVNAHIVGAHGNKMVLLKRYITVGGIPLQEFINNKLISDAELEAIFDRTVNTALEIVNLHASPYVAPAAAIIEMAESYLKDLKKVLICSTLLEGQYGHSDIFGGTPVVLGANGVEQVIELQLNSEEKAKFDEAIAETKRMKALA

SMILES: NC(=O)c1ccc[n+]([C@@H]2O[C@H](COP(=O)([O-])OP(=O)(O)OC[C@H]3O[C@@H](n4cnc5c(N)ncnc54)[C@H](O)[C@@H]3O)[C@@H](O)[C@H]2O)c1 [NAD^+]
- Km (P. falciparum LDH; titration of LDH with linear gradient of NAD^+, initial rate conditions): 54 ± 2 µM

SMILES: O=C(O)C(=O)O [oxalate]
- mechanism of inhibition (P. falciparum LDH; with respect to substrate NAD^+): uncompetitive inhibition
- inhibition mechanism (LDH; with respect to NAD^+): uncompetitive
- inhibition mechanism (LDH; with respect to lactate, reported previously): competitive inhibitor
- mechanism of inhibition ([1]; with respect to NAD^+, ambiguous): uncompetitive inhibitor
- mechanism of inhibition ([1]; with respect to lactate): competitive inhibitor
